Laboratory results from patent US7122666B2, “Heteroaryl-substituted pyrrole derivatives, their preparation and their therapeutic uses” (Sankyo Company, Limited, priority 1999, dated 2006).

Tests used:
[1] = tested on: TNFα production in human whole blood; experiment: Inhibition of the production of TNFα in vitro in human whole blood (Test Examples 1 and 1′); format: cell-based; details: Table 7′, lipopolysaccharide 10 μg/ml, 6 hours at 37° C., plasma TNFα by ELISA, least squares, read-out: Inhibitory Effect on TNFα Production (in vitro) IC50
Protocol: (§1) Inhibition of the Production of the Cytokines IL-1β and TNFα in Vitro in Human Whole Blood
(§2) This test was performed according to the method of Hartman, et al. [D. A. Hartman, S. J. Ochalski and R. P. Carlson; The effects of anti-inflammatory and antiallergic drugs on cytokine release after stimulation of human whole blood by lipopolysaccharide and zymosan A: Inflamm. Res., 44, 269 (1995)].
(§3) Peripheral blood samples were collected in the presence of heparin from healthy adult volunteers. 1000 μl of whole blood were added to an Eppendorf tube to which 2 μl of a dimethyl sulfoxide solution of the test compound had been added in advance, after which 10 μl of lipopolysaccharide (E. coli 026: B6 origin, Difco) were added as a stimulant (final concentration of said lipopolysaccharide: 10 μg/ml). This was mixed well and then incubated for 6 hours at 37° C. in the presence of 5% CO2. At the end of the incubation, the mixture was cooled to 4° C. to stop the reaction, followed immediately by centrifuging for 5 minutes at 14,000 rpm to separate and collect the supernatant plasma. The IL-1β and TNFα produced and released into the plasma were measured using a commercially available enzyme immunoassay (ELISA) kit [Cayman (IL-1β) and Genzyme (TNFα)]. The procedure was also repeated in the absence of test compound. The inhibitory effect [IC50 (μM)] on the production of IL-1β and TNFα was determined from the amounts of the cytokines produced in the presence and absence of the test compound.
(§4) Inhibition of the Production of the Cytokines IL-1β and TNFα In Vitro in Human Whole Blood
as §3, with “O26:” for “026:”, “plasma” for “plasma.”, “kits” for “kit”, “determined by the method of least squares” for “determined”

[2] = tested on: IL-1β production in human whole blood; experiment: Inhibition of the production of IL-1β in vitro in human whole blood (Test Examples 1 and 1′); format: cell-based; details: Table 8′, lipopolysaccharide 10 μg/ml, 6 hours at 37° C., plasma IL-1β by ELISA, least squares, read-out: Inhibitory Effect on IL-1β Production (in vitro) IC50
Protocol: as §1, §2, §3, §4
as §3, with “O26:” for “026:”, “plasma” for “plasma.”, “kits” for “kit”, “determined by the method of least squares” for “determined”

TNFα production = experiment: Inhibition of the production of TNFα in vivo (Test Examples 2 and 2′); details: Table 9′; Balb/c mice, oral administration 30 minutes before intravenous lipopolysaccharide, plasma TNFα 1 hour after LPS
Protocol: This test was performed according to the method of Ochalski, et al. [S. J. Ochalski, D. A. Hartman, M. T. Belfast, T. L. Walter, K. B. Glaser and R. P. Carlson; Inhibition of endotoxin-induced hypothermia and serum TNF-α levels in CD-1 mice by various pharmacological agents: Agents Actions 39, C52–C54 (1993)].
The production of TNFα was induced in mice by the intravenous injection of lipopolysaccharide (E. coli O26: B6 origin, Difco) which was prepared to a concentration of 0.045 mg/ml using physiological saline. The saline preparation of lipopolysaccharide was administered at the rate of 10 ml/l kg of body weight into the caudal vein of Balb/c mice (males, age 5–7 weeks, body weight: approx. 22 g, Japan Charles River) which had been fasted overnight starting on the day before the experiment. One hour after administration, the mice were laparotomized under ether anaesthesia and blood was collected from the abdominal vena cava. Blood collection was performed using a 1 ml volume disposable syringe equipped with a 23G needle which had been moistened with heparin on the inside wall. Following blood collection, the blood was immediately transferred to a 1.5 ml volume Eppendorf tube and centrifuged at 4° C. and 14,000 rpm to separate the plasma. This plasma was then stored at −20° C. until measurement of TNFα. The measurement of the amount of TNFα was performed with a commercially available enzyme immunoassay (ELISA) kit (Mouse TNFα ELISA KIT, Genzyme).
To determine the inhibitory activity of the test compounds, each test compound was suspended in a 0.5% tragacanth solution and then administered orally to the Balb/c mice at the rate of 10 ml/1 kg of body weight 30 minutes before injection of lipopolysaccharide. The level of TNFα production was then determined as described above. In the control group, 0.5% tragacanth solution was administered at the rate of 10 ml/1 kg of body weight to the test mice instead of the solutions of the test compounds. A minimum of 3 dose levels of the test compound was administered to groups of 5 test mice for each test compound. The inhibitory rate relative to the control group was calculated for each dose level. From the inhibitory rates and the dosages, ID50 values were calculated by the least squares method.
The production of TNFα was induced in mice by the intravenous injection of lipopolysaccharide (E. coli O26: B6 origin, Difco) which was prepared to a concentration of 0.045 mg/ml using physiological saline. […]
To determine the inhibitory activity of the test compounds, each test compound was suspended in a 0.5% tragacanth solution and then administered orally to the Balb/c mice at the rate of 10 ml/1 kg of body weight 30 minutes before injection of lipopolysaccharide. The level of TNFα production was then determined as described above. […]

Row | SMILES | IC50 [1] | IC50 [2] | Inhibitory Effect on TNFα Production (in vivo) IC50 (TNFα production)
1 | CC1=CC2C=C(c3c[nH]c(-c4ccc(F)cc4)c3-c3ccncc3)CCN2C1 (stereo in doubt) [Example 31′, 2-(4-Fluorophenyl)-4-[(8aS)-2-methyl-3,5,6,8a-tetrahydroindolizin-7-yl]-3-(pyridin-4-yl)-1H-pyrrole] | 2.4 nM | 4.6 nM | 0.36 mg/kg
2 | Fc1ccc(-c2[nH]cc(C3=C[C@@H]4CC5(CN4CC3)OCCO5)c2-c2ccncc2)cc1 [Example 14′, 4-[(8aS)-2,2-Ethylenedioxy-1,2,3,5,6,8a-hexahydroindolizin-7-yl]-2-(4-fluorophenyl)-3-(pyridin-4-yl)-1H-pyrrole] | 4 nM | 9.2 nM | 
3 | Fc1ccc(-c2[nH]cc(C3=C[C@@H]4CCCN4CC34CC4)c2-c2ccncc2)cc1 [Example 19′, 4-[Cyclopropanespiro-6′-[(8a′S)-1′,2′,3′,5′,6′,8a′-hexahydroindolizin]-7′-yl]-2-(4-fluorophenyl)-3-(pyridin-4-yl)-1H-pyrrole] | 44 nM | 8.3 nM | 
4 | CO[C@H]1C[C@H]2C=C(c3c[nH]c(-c4ccc(F)cc4)c3-c3ccncc3)CCN2C1 [Example 21′, 2-(4-Fluorophenyl)-4-[(2S,8aS)-2-methoxy-1,2,3,5,6,8a-hexahydroindolizin-7-yl)-3-(pyridin-4-yl)-1H-pyrrole] | 46 nM | 18 nM | 
5 | C=C1C[C@H]2C=C(c3c[nH]c(-c4ccc(F)cc4)c3-c3ccncc3)CCN2C1 [Example 23′, 2-(4-Fluorophenyl)-4-[(8aS)-2-methylidene-1,2,3,5,6,8a-hexahydroindolizin-7-yl]-3-(pyridin-4-yl)-1H-pyrrole] | 3.7 nM | 3.8 nM | 
6 | CC1(C)C[C@H]2C=C(c3c[nH]c(-c4ccc(F)cc4)c3-c3ccncc3)CCN2C1 [Example 27′] | 3.8 nM | 1.4 nM | 
7 | CS[C@H]1C[C@H]2C=C(c3c[nH]c(-c4ccc(F)cc4)c3-c3ccncc3)CCN2C1 [Example 29′, 2-(4-Fluorophenyl)-4-[(2S,8aS)-2-methylthio-1,2,3,5,6,8a-hexahydroindolizin-7-yl]-3-(pyridin-4-yl)-1H-pyrrole] | 3.6 nM | 1 nM | 
8 | CC[C@H]1C[C@H]2C=C(c3c[nH]c(-c4ccc(F)cc4)c3-c3ccncc3)CCN2C1 [Example 32′, 4-[(2S,8aS)-2-Ethyl-1,2,3,5,6,8a-hexahydroindolizin-7-yl)-2-(4-fluorophenyl)-3-(pyridin-4-yl)-1H-pyrrole] | 4.5 nM | 2.7 nM | 0.61 mg/kg
9 | CCCCS[C@H]1C[C@H]2C=C(c3c[nH]c(-c4ccc(F)cc4)c3-c3ccncc3)CCN2C1 [Example 34′, 4-[(2S,8aS)-2-Butylthio-1,2,3,5,6,8a-hexahydroindolizin-7-yl)-2-(4-fluorophenyl)-3-(pyridin-4yl)-1H-pyrrole] | 46 nM | 49 nM | 
10 | CCS[C@H]1C[C@H]2C=C(c3c[nH]c(-c4ccc(F)cc4)c3-c3ccncc3)CCN2C1 [Example 36′, 4-[(2S,8aS)-2-Ethylthio-1,2,3,5,6,8a-hexahydroindolizin-7-yl]-2-(4-fluorophenyl)-3-(pyridin-4-yl)-1H-pyrrole] | 18 nM | 26 nM | 
11 | CC=C1C[C@H]2C=C(c3c[nH]c(-c4ccc(F)cc4)c3-c3ccncc3)CCN2C1 [Example 37′, 4-[(8aS)-2-Ethylidene-1,2,3,5,6,8a-hexahydroindolizin-7-yl]-2-(4-fluorophenyl)-3-(pyridin-4-yl)-1H-pyrrole] | 10 nM | 58 nM | 
12 | CCC[C@H]1C[C@H]2C=C(c3c[nH]c(-c4ccc(F)cc4)c3-c3ccncc3)CCN2C1 [Example 43′, 2-(4-Fluorophenyl)-4-[(2S,8aS)-2-propyl-1,2,3,5,6,8a-hexahydroindolizin-7-yl]-3-(pyridin-4-yl)-1H-pyrrole] | 6 nM | 8 nM | 0.40 mg/kg
